Assay: Biopharmaceutical Classification System class
Format: physicochemical
Excerpt: The present disclosure relates to a quality controllable solid dosage form and a process for its preparation, wherein the solid dosage form comprises a compound of formula 1 4-{(1S)-1-[({3-(difluoromethyl)-1-methyl-5-[3-(trifluoromethyl)phenoxy]-4-1H-pyrazolyl} carbonyl)amino]ethyl}benzoic acid (compound AN0025) and optionally at least one pharmaceutically acceptable carrier. […] The inventor unexpectedly found in the experiment that AN0025 tablets prepared by different processes can show good uniformity in in vitro dissolution experiments, and AN0025 tablets prepared with different API particle sizes have similar in vitro dissolution behavior and in vivo exposure.

C[C@H](NC(=O)c1c(C(F)F)nn(C)c1Oc1cccc(C(F)(F)F)c1)c1ccc(C(=O)O)cc1 [AN0025, 4-{(1S)-1-[({3-(difluoromethyl)-1-methyl-5-[3-(trifluoromethyl)phenoxy]-4-1H-pyrazolyl}carbonyl)amino]ethyl}benzoic acid]
Biopharmaceutical Classification System class: class IV | solubility (as per BCS class): low solubility
